{
  "source": "paper PMC12562379",
  "about": "“Facile Synthesis of N-vinylindoles via Knoevenagel Condensation: Molecular Features and Biological Activities” (International Journal of Molecular Sciences, 2025)",
  "origin": "cited, not measured here",
  "design": "method as in PMID 29925826",
  "conditions": "NH-acid; cited from earlier work",
  "data": [
    {"compound": "c1ccc2[nH]nnc2c1", "note": "[1H-benzotriazole]", "values": [
      {"measurement": "pKa", "result": 8.2}
    ]}
  ]
}
